# Earlier results in patent US11318093B2, “Dental topical anesthetic gel” (Pac-Dent, Inc., priority 2019, dated 2022).
# Experiments:
# [1] = tested on: methicillin-resistant Staphylococcus aureus strains (MRSA); conditions: European research; strains resistant to several classes of drugs
# [2] = tested on: MCP-2 chemokine and other proinflammatory cytokines; conditions: Petrosino et al. 2018; in vitro ACD model; inhibition of MCP-2 chemokine and proinflammatory cytokine production
# [3] = Evans 1991
# [4] = tested on: cyclooxygenase (COX)
# [5] = in vivo
smiles,measurement,setting,value
"CCCCCc1cc(O)c(C/C=C(\C)CCC=C(C)C)c(O)c1 [CBG, cannabigerol]",antibacterial agent against MRSA,[1],effective antibacterial agent
same,anti-inflammatory properties,[2],some anti-inflammatory benefits
"C=C(C)[C@@H]1CCC(C)=C[C@H]1c1c(O)cc(CCCCC)cc1O [CBD, cannabidiol]",anti-inflammatory properties,[2],potent anti-inflammatory properties
"C=C(C)[C@@H]1CCC(C)=C[C@H]1c1c(O)cc(CCC)cc1O [CBDV, cannabidivarin]",anti-inflammatory properties,[2],some anti-inflammatory benefits
"CCCCCc1cc(O)c2c(c1)OC(C)(C)[C@@H]1CCC(C)=C[C@@H]21 [THC, tetrahydrocannabinol]",anti-inflammatory potency relative to aspirin,[3],twenty times that of aspirin
same,anti-inflammatory potency relative to hydrocortisone,[3],twice that of hydrocortisone
same,cyclooxygenase (COX) inhibition,[4],without any cyclooxygenase (COX) inhibition
"CCCCCc1cc(O)c2c(c1)OC(C)(CCC=C(C)C)C=C2 (stereo not drawn) [CBC, cannabichromene]",anti-inflammatory properties,[2],some anti-inflammatory benefits
same,pain and inflammation associated with collagen-induced osteoarthritis,[5],block pain and inflammation
